Laboratory results reported in US4059586A, “5-Alkoxy-2-alkyl-1,2,3,4-tetrahydroisoquinolene-8-carboxaldehyde and derivatives” (Marion Laboratories, Inc., priority 1976, dated 1977).

Assays:
[1] = ALD50 in mice (acute toxicity, i.p.); details: mouse, in vivo, ip
Method: (§1) 5-hydroxy-2-methyl-7,8-cyclopentano[h]-1,2,3,4-tetrahydroisoquinoline has an ALD50 in mice of 100-150 mg/kg i.p. When administered as the base at 50 mg/kg i.p. to hypertensive rats the following percent change in systolic blood pressure was observed: […]

hypertensive rats = assay: percent change in systolic blood pressure in hypertensive rats; type: in vivo; details: base at 50 mg/kg i.p.
Method: as §1

SMILES: CN1CCc2c(O)cc3c(c2C1)CCC3 [5-hydroxy-2-methyl-7,8-cyclopentano[h]-1,2,3,4-tetrahydroisoquinoline]
- LD50 [1]: 100 to 150 mg/kg
- percent change in systolic blood pressure (hypertensive rats; 1 hour): -18.9%
- percent change in systolic blood pressure (hypertensive rats; 2 hours): -13.6%
- percent change in systolic blood pressure (hypertensive rats; 4 hours): -11.2%
- percent change in systolic blood pressure (hypertensive rats; 24 hours): -4.7%
